In patent US7511119B2, “PRAME peptide analogues” (MannKind Corporation, priority 2005, dated 2009):
Entries after “also recorded” stand apart in the source; their conditions may differ. Square brackets hold non-standard residues; d marks the D form. Ends that are not written are not given here. Nle = CCCC[C@H](N)C(=O)O; Nva = CCC[C@H](N)C(=O)O

Experiments:
[1] = system: PRAME425-433-specific T cells; experiment: Tetramer/CD8 co-staining of PRAME425-433-specific T cells; assay type: in vivo, HHD transgenic mice; settings: versus boost with negative control peptide; FIG. 31
[2] = system: native peptide loaded splenocytes; experiment: In vivo cytotoxicity against native PRAME peptide-loaded splenocytes (CFSE); set-up: species or system HHD transgenic mice; settings: pCTLR2 prime, peptide boost; FIGS. 30-31
A2-624.28 control cells = experiment: Ex vivo cytotoxicity against A2-negative control cells; assay type: in vivo; settings: same effector cells as for 624.38
Protocol: (§1) This was followed by two peptide boosts (2.5 μg) at day 28 and 31, with the analog L426Nva L433Nle.

624.38 melanoma cells = experiment: Ex vivo cytotoxicity against PRAME+ A2+ human tumor cells; assay type: in vivo; settings: splenocytes restimulated ex vivo with native PRAME peptide
Protocol: as §1

HLA-A*0201 = HLA-A*0201 (Homo sapiens, UniProt P04439, D140Y/D185E/D98H/E176V/E277Q/G131W/G231S/I119V/I121R/I166T/I218V/L300P/L318F/N151K/N90K/P208A/P217A/Q86G/Q94H/R138H/R169H/T345S); experiment: iTopia affinity assay (ED50); assay type: binding; settings: compared with the respective native peptide
Text: Avidin-coated microtiter plates containing class I monomer loaded with a so-called placeholder peptide were used to evaluate peptide binding, affinity and off-rate. The monomer-coated plates were supplied as part of the iTopia Epitope Discovery System Kit (Beckman Coulter, Inc., San Diego, Calif., USA). Assay buffers, anti-MHC-FITC mAb and beta2-microglobulin and control peptides were also supplied with the kits.
Plates were read on the fluorometer. Sigmoidal dose response curves were generated using Prism software.

PRAME425-433 peptide = experiment: IFN-gamma ELISA of splenocytes after pCTLR2 prime and peptide boost; assay type: in vivo, HHD transgenic mice; settings: pCTLR2 prime, 2.5 μg peptide boost; versus native peptide boost; FIG. 29
[3] = target: A0201 restricted MHC Class 1 molecules (Homo sapiens, UniProt P04439, D140Y/D185E/D98H/E176V/E277Q/G131W/G231S/I119V/I121R/I166T/I218V/N151K/N90K/P208A/P217A/Q86G/Q94H/R138H/R169H); experiment: iTopia off-rate assay (T1/2); assay type: binding; settings: compared with the respective native peptide
Protocol: Avidin-coated microtiter plates containing class I monomer loaded with a so-called placeholder peptide were used to evaluate peptide binding, affinity and off-rate. […] Assay buffers, anti-MHC-FITC mAb and beta2-microglobulin and control peptides were also supplied with the kits.
The plates were then incubated on the allele-specific monomer plates at 37° C. The plates were measured at multiple time points (0, 0.5, 1, 1.5, 2, 4, 6 and 8 hrs) for relative fluorescence intensity. The time required for 50% of the peptide to dissociate from the MHC monomer is defined as the T1/2 value (hrs).
The binding and offrate (T1/2) was determined for six native epitopes and their analogs which were designed to enhance the immune response.

[4] = system: T cell line specific for the native epitope PRAME425-433; experiment: Cross-reactivity of PRAME425-433 analogs: IFN-gamma secretion from T cell line specific for native epitope; assay type: cell-based; settings: analog peptide at approximately 0.3 μM; normalized to native PRAME425-433
Protocol: The analogs listed in FIGS. 26-28 were tested for various properties such as improved affinity and stability of binding, cross-reactivity with the native epitope, and immunogenicity as follows in Examples 40-48. […] The observed affinities of the analogs are reported as % binding (compared to the positive control) and ED50, and stability of binding as half time of dissociation. Cross reactivity with the native epitope was assessed by using the analog peptides to stimulate IFN-gamma secretion from a T cell line specific for the native epitope, essentially as described in Example 6. The data shown in FIGS. 26-28 were generated by stimulating with analog peptide at approximately 0.3 μM. […] In some cases, the reported values are the average of two determinations.

splenocytes = experiment: Ex vivo cytokine production (IFN-gamma ELISA) after boost with PRAME analogs; assay type: in vivo, HHD transgenic mice; settings: 10 μg/ml native peptide, 48 hours; FIG. 32

stability of binding (half-time of dissociation), in words [3]: Significant increase in the stability
Substance: S{Nva}LQHLIG{Nle} (S[Nva]LQHLIG[Nle]) [Prame 425-433 (L426Nva, L433Nle)]
expansion of T cells specific against the native epitope (tetramer staining) [1]: significantly higher
in vivo cytotoxicity against native epitope, in words [2]: preserved induction of cytotoxicity; also recorded: capable of expanding the immunity against the native epitope
cytotoxicity against A2-negative control cells (A2-624.28 control cells): no significant activity
cytotoxicity against 624.38 human tumor cells (624.38 melanoma cells): significant cytotoxicity
binding affinity (ED50) / binding characteristics, in words (HLA-A*0201): similar, somewhat improved binding characteristics
IFN-γ production in response to PRAME425-433 peptide (ELISA) (PRAME425-433 peptide): significant enhancement of IFN-γ production
IFN-γ production (cross-reactivity), in words [4]: significant level of cross-recativity
ex vivo cytokine production (IFN-γ) by splenocytes (splenocytes): greater response
